This is an account of results in ChEMBL document CHEMBL5126603, “Discovery of Clinical Candidate CHF-6366: A Novel Super-soft Dual Pharmacology Muscarinic Antagonist and β2 Agonist (MABA) for the Inhaled Treatment of Respiratory Diseases” (J Med Chem, 2022).

Data set [1] can be described thus: Metabolic stability in rat plasma assessed as half life at 5 uM measured upto 120 mins by LC-MS/MS analysis. The class given is ADME, cell-free.
The subject of data set [2] is Trachea. As to the kind of experiment: In vivo bifunctional antagonist activity at muscarinic M3 receptor /agonist activity at beta-2 adrenoceptor in Dunkin-Hartley guinea pig trachea assessed as inhibition of carbachol induced contraction. Conditions: Cavia porcellus. Format: functional, tissue-based.
Data set [3] can be described thus: Metabolic stability in Dunkin-Hartley guinea pig plasma assessed as half life at 5 uM measured upto 120 mins by LC-MS/MS analysis. The class given is ADME, cell-free, Cavia porcellus.
The nature of data set [4]: Metabolic stability in human plasma assessed as half life at 5 uM measured upto 120 mins by LC-MS/MS analysis. Format: ADME, cell-free.
The nature of data set [5]: Metabolic stability in human lung S9 fraction assessed as half life at 1 uM measured after 0 to 60 mins in presence of NADPH by LC-MS/MS analysis. The class given is ADME, subcellular. As to conditions: time 0-60 min.
The subject of data set [6] is Trachea. Briefly: In vivo bifunctional antagonist activity at muscarinic M3 receptor /agonist activity at beta-2 adrenoceptor in Dunkin-Hartley guinea pig trachea assessed as time duration for inhibition of carbachol induced contraction measured […]. The class given is functional, Cavia porcellus.
Data set [7] is described as follows: Metabolic stability in rat lung S9 fraction assessed as half life at 1 uM measured after 0 to 60 mins in presence of NADPH by LC-MS/MS analysis. Format: ADME, subcellular. Conditions: time 0-60 min.
Data set [8] in a line: In vivo antagonist activity at muscarinic M3 receptor in Dunkin-Hartley guinea pig trachea assessed as inhibition of acetylcholine induced bronchoconstriction at 1 nmol/Kg, IT(Intratracheal) measured after 1 hr in presence of ICI-118551 by Konzett-Roessler methodology relative to control. Format: functional. As to conditions: Cavia porcellus.
A short description of data set [9]: In vivo agonist activity at beta-2 adrenoceptor in Dunkin-Hartley guinea pig trachea assessed as inhibition of histamine-induced bronchoconstriction at 3 nmol/Kg, IT(Intratracheal) measured after 24 hr by Konzett-Roessler methodology relative to control. Format: functional. Conditions: Cavia porcellus.
For data set [10], the system named is Trachea. As to the kind of experiment: Bifunctional antagonist activity at muscarinic M3 receptor /agonist activity at beta-2 adrenoceptor in Dunkin-Hartley guinea pig trachea assessed as inhibition of acetylcholine-induced bronchoconstriction at 3 nmol/Kg, IT(Intratracheal) measured after 1 hr by Konzett-Roessler methodology relative to control. The class given is functional. Conditions: Cavia porcellus.

Data set [11] can be described thus: In vivo agonist activity at beta-2 adrenoceptor in Dunkin-Hartley guinea pig trachea assessed as inhibition of histamine-induced bronchoconstriction at 3 nmol/Kg, IT(Intratracheal) measured after 1 hr by Konzett-Roessler methodology relative to control. Format: functional. Conditions: Cavia porcellus.
The nature of data set [12]: In vivo agonist activity at beta-2 adrenoceptor in Dunkin-Hartley guinea pig trachea assessed as inhibition of histamine induced bronchoconstriction at 1 nmol/Kg, IT(Intratracheal) measured after 1 hr by Konzett-Roessler methodology relative to control. The class given is functional. Conditions: Cavia porcellus.
Data set [13] has as its system Trachea. As to the kind of experiment: Bifunctional antagonist activity at muscarinic M3 receptor /agonist activity at beta-2 adrenoceptor in Dunkin-Hartley guinea pig trachea assessed as inhibition of acetylcholine induced bronchoconstriction at 1 nmol/Kg, IT(Intratracheal) measured after 1 hr by Konzett-Roessler methodology relative to control. The class given is functional. Conditions: Cavia porcellus.

The nature of data set [14]: In vivo antagonist activity at muscarinic M3 receptor in Dunkin-Hartley guinea pig trachea assessed as inhibition of acetylcholine induced bronchoconstriction at 1 nmol/Kg, IT(Intratracheal) measured after 24 hr in presence of ICI-118551 by Konzett-Roessler methodology relative to control. As to conditions: Cavia porcellus. Format: functional.
Data set [15] concerns Trachea. Briefly: Bifunctional antagonist activity at muscarinic M3 receptor /agonist activity at beta-2 adrenoceptor in Dunkin-Hartley guinea pig trachea assessed as inhibition of acetylcholine induced bronchoconstriction at 1 nmol/Kg, IT(Intratracheal) measured after 24 hr by Konzett-Roessler methodology relative to control. The class given is functional. Conditions: Cavia porcellus.

Data set [16] in a line: In vivo agonist activity at beta-2 adrenoceptor in Dunkin-Hartley guinea pig trachea assessed as inhibition of histamine induced bronchoconstriction at 1 nmol/Kg, IT(Intratracheal) measured after 24 hr by Konzett-Roessler methodology relative to control. Format: functional. As to conditions: Cavia porcellus.
Data set [17] can be described thus: Metabolic stability in Dunkin-Hartley guinea pig lung S9 fraction assessed as half life at 1 uM measured after 0 to 60 mins in presence of NADPH by LC-MS/MS analysis. The class given is ADME, subcellular, Cavia porcellus. As to conditions: time 0-60 min.
A short description of data set [18]: In vivo antagonist activity at muscarinic M3 receptor in Dunkin-Hartley guinea pig trachea assessed as inhibition of acetylcholine-induced bronchoconstriction at 3 nmol/Kg, IT(Intratracheal) measured after 1 hr in presence of ICI-118551 by Konzett-Roessler methodology relative to control. Format: functional. As to conditions: Cavia porcellus.
Data set [19] deals with Trachea. As to the kind of experiment: Bifunctional antagonist activity at muscarinic M3 receptor /agonist activity at beta-2 adrenoceptor in Dunkin-Hartley guinea pig trachea assessed as inhibition of acetylcholine-induced bronchoconstriction at 3 nmol/Kg, IT(Intratracheal) measured after 24 hr by Konzett-Roessler methodology relative to control. The class given is functional. Conditions: Cavia porcellus.

Data set [20] can be described thus: In vivo antagonist activity at muscarinic M3 receptor in Dunkin-Hartley guinea pig trachea assessed as inhibition of acetylcholine-induced bronchoconstriction at 3 nmol/Kg, IT(Intratracheal) measured after 24 hr in presence of ICI-118551 by Konzett-Roessler methodology relative to control. Format: functional. As to conditions: Cavia porcellus.

Molecules are shown by their SMILES.

The half-life is the time needed for the level to fall by half in the phase considered. One may read the IC50 as the concentration at which inhibition is half-maximal. Regarding `O=C(N[C@H](c1ccccc1)c1cccc(OCc2ccc(C(=O)OCCCCNC[C@H](O)c3ccc(O)c4[nH]c(=O)ccc34)cc2)c1)O[C@H]1CN2CCC1CC2`, the values for the half-life at 5 µM in [1], in [3] and in data set [4] were < 5 min, 46.7 min and < 5 min, respectively. Further, the half-inhibitory concentration (IC50) in data set [2] is 1.26 nM. In addition, the half-life at 1 µM in [5] was found to be 16.8 min. In addition, in [6], the Time stood at 180 min.

By inhibition in vivo is commonly meant the drop in the measured response relative to a control, in per cent. In the case of `O=C(N[C@@H](c1ccccc1)c1cccc(OCc2ccc(C(=O)OCCCCNC[C@H](O)c3ccc(O)c4[nH]c(=O)ccc34)o2)c1)O[C@H]1CN2CCC1CC2`, the figures for the half-life at 1 µM in data set [7], in [5] and in data set [17] were 120 min, 32 min and > 120 min, respectively. The values for the half-life at 5 µM in data set [1], in data set [3] and in [4] were 7 min, > 120 min and < 5 min, respectively. Moreover, the IC50 in data set [2] is 0.2 nM. The inhibition in vivo at 0.001 µmol/kg was 64.7% in data set [8]; 67.8% in [12]; 72% in data set [13]; 9.4% in data set [14]; 34.2% in [15]; 48.9% in [16]. Moreover, the inhibition in vivo at 0.003 µmol/kg was 48.7% in data set [9]; 78.3% in [10]; 84.5% in data set [11]; 73.7% in data set [18]; 60.6% in data set [19]; 43.5% in data set [20]. Moreover, the Time in data set [6] is recorded as >225 min.

For the molecule `O=C(NC(c1ccccc1)c1cccc(OCc2ccc(C(=O)OCCCCNC[C@H](O)c3ccc(O)c4[nH]c(=O)ccc34)cc2)c1)O[C@H]1CN2CCC1CC2` (mixture of isomers), the half-life at 5 µM in [1] and in [4] was < 5 min throughout. Besides, the half-inhibitory concentration (IC50) in data set [2] was 0.0794 nM. For the same molecule, in data set [6], the Time is listed as >270 min.

In the case of `COc1cc(C(=O)OCCCCNC[C@H](O)c2ccc(O)c3[nH]c(=O)ccc23)ccc1COc1cccc([C@@H](NC(=O)O[C@H]2CN3CCC2CC3)c2ccccc2)c1`, the half-life at 5 µM in data set [1] came out at 12 min; in data set [3] it was 83.5 min; in data set [4], 21 min. The IC50 in [2] is 1.26 nM. Moreover, in [5], the half-life at 1 µM is 89.3 min. Besides, the Time in [6] was <135 min.

Regarding `O=C(N[C@@H](c1ccccc1)c1cccc(OCc2ccc(C(=O)OCCCCNC[C@H](O)c3ccc(O)c4[nH]c(=O)ccc34)cc2)c1)O[C@H]1CN2CCC1CC2`, the half-life at 5 µM is < 5 min in data set [1], 69.8 min in [3] and < 5 min in data set [4]. For the same molecule, the IC50 in [2] was 0.1 nM. Besides, the half-life at 1 µM in [5] was found to be 26.4 min. Further, in data set [6], the Time is recorded as >225 min.
